{"source": "patent US20240150755A1", "about": "“MODULATING REGULATORY T CELL FUNCTION IN AUTOIMMUNE DISEASE AND CANCER” (Salk Institute for Biological Studies, priority 2021, published 2024)", "tested_on": "Treg cells", "assay": "In vitro Treg suppression assay", "type": "cell-based, mouse", "conditions": "sgRNA transduced Treg cells plus MIGR-Foxp3", "from_the_text": "Treg cells were transduced by retrovirus expressing sgRNA targeting gene of interest and cultured in X-VIVO® complete media supplemented with IL-2 (500 U/ml). Four days after transduction, transduced cells were […] a fluorescence-activated cell sorter (FACS). CD45.1+ naive CD4 T cells (CD4^+CD25^−CD44^loCD62^hi) were labeled with CellTrace™ Violet (Thermo Fisher Scientific #C34571) in different ratio in the presence of irradiated T cell depleted spleen cells as antigen-presenting cells (APC). Three days later, Treg suppression function was measured by the percentage of non-dividing cells within the CD45.1^+ effector T cell population. For dBRD9 treatment experiment, dBRD9 was first dissolved in DMSO (10 mM stock) and added into Treg:Teff:APC mixture at 2.5 μM. For Foxp3 overexpression rescue experiment, Treg cells were first transduced with sgNT or sgBrd9 at 24 hour post-activation, and then transduced with MIGR empty vector or MIGR-Foxp3 at 48 hour post-activation. Double transduced Treg cells were FACS sorted on day 4 based on NGFR+ and GFP+ markers and then mixed with CellTrace™ labeled effector T cells in the presence of APC. Treg suppression readout was measured after three days of co-culture."}
{"substance": "sgBrd9: sgRNA targeting Brd9, ATTAACCGGTTTCTCCCGGG (SEQ ID NO: 12) (expressed or natural sequence)", "values": [{"measurement": "Treg suppressor activity with ectopic expression of Foxp3", "value": "partially restored Treg suppressor activity to a level comparable to sgNT controls"}]}
